In patent publication US10865194B2, “Therapeutically active bicyclic-sulphonamides and pharmaceutical compositions” (FONDAZIONE ISTITUTO ITALIANO DI TECNOLOGIA, priority 2017, dated 2020):
Read-outs that look alike come from different tables or passages of the source.

Key:
[1] = test system: Neuro2A cells; experiment: Inhibition of ROS production in Neuro2A cells (H2O2-induced, DCFH-DA fluorescence); assay type: cell-based; conditions: for Inhibition of ROS production in neuro 2A cells, 5 μM (inhibition) / inhibition at 5 µM: compound 5 μM; for Inhibition of ROS production in neuro 2A cells, 10 μM (inhibition) / inhibition at 10 µM: compound 10 μM; for inhibition at 5 µM / inhibition at 10 µM: Mus musculus, N2a; for inhibition at 5 µM: ROS induced with 0.2 mM H2O2, read-out: Inhibition of ROS production in neuro 2A cells, 5 μM (inhibition); for inhibition at 10 µM: ROS induced with 0.2 mM H2O2, read-out: Inhibition of ROS production in neuro 2A cells, 10 μM (inhibition)
Experimental: The experiments carried out to evaluate the inhibition of ROS production using the compounds of the invention were based on the method reported by Danli W. and Patricia Yotnda in Production and Detection of Reactive Oxygen Species (ROS) in Cancers, J. Vis Exp. 2011; (57):3357.
Cultured brain Neuroblastoma2A (Neuro2A) were used.
15.000 Cells were plated in a 96 well plate with black walls and transparent flat bottom in 100 μL of DMEM complete medium (including 10% fetal bovine serum, […] L-Glutamine) containing compounds at indicated concentrations or 0.5% dimethylsulfoxide (DMSO), and kept overnight at 37° C. to allow them to attach to the plate. The following day the culture medium was removed, cells were washed with 100 μl of Phosphate Buffer Saline, pH 7.4 (PBS) and loaded with 100 μL of PBS containing 10 μM of dichloro-dihydro-fluorescein diacetate (DCFH-DA) and compounds at the indicated concentrations (or DMSO 0.5%) for additional 45 min at 37° C. DCFH-DA was prepared as a 20 mM stock in (DMSO) and kept in the dark at 4° C.
ROS production was induced by exposure with 0.2 mM H2O2 dissolved in 100 μl of complete DMEM medium without phenol red. Fluorescence intensity was measured at an […] wavelengths of 485/535 nm and ROS production was monitored for 2 h, at 37° C.

[2] = biological target: T1, human NAAA (Homo sapiens, UniProt Q02083); experiment: In vitro human NAAA fluorogenic assay; assay type: biochemical; conditions: enzyme-enriched lysate of HEK-293 cells stably transfected with human NAAA
T1 construct: expressed in transfected cells; host or cells: HEK-293 (stably transfected, G418 selection); enzyme-enriched lysate
T1 sequence (Q02083 126-359 limits assumed): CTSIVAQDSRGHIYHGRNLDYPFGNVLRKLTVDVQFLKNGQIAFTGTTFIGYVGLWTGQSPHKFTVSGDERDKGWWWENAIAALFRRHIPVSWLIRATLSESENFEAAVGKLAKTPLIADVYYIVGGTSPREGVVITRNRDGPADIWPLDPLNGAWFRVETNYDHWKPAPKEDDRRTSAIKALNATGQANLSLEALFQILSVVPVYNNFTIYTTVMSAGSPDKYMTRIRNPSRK
T1 sequence (Q02083 29-125 limits assumed): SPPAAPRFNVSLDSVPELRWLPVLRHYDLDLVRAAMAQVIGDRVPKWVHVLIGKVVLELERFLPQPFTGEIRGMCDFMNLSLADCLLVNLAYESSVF
Experimental: Human recombinant proteins were obtained from HEK-293 stable overexpressing NAAA cell lines. Cells were grown in Dulbecco's modified Eagle medium (DMEM) containing 10% FBS, 1% penicillin/streptomycin, 1% glutamine and 500 μg/mL G418. To obtain membrane preparation cells were scraped off with cold phosphate-buffered saline (PBS) and collected by centrifugation (300×g, 7 min, 4° C.). Cell pellet were stored at −80° C. until protein preparation.
In Vitro Human NAAA Assay
Preparation of Enzyme-Enriched Lysate (h-NAAA).
HEK-293 cells stably transfected with the human NAAA coding sequences were used as enzyme source. Cell pellets were suspended in 20 mM Tris HCl (pH 7.4) with 0.32 M sucrose, sonicated and centrifuged at 800×g for 30 min at 4° C. Supernatants were then ultracentrifuged at 12,000×g for 30 min at 4° C. Pellets were re-suspended in PBS buffer (pH 7.4) and subjected to three freeze-thaw cycles at −80° C. The suspension was finally ultracentrifuged at 105,000×g for 1 h at 4° C., supematants were collected, protein concentration was measured and samples aliquoted and stored at −80° C. until use.
The results are summarized in Table 3 as follows, wherein +: IC50>2 μM; ++: 1.0 μM<IC50<2 μM; +++: IC50<1 μM: […]

[3] = read-out: Activity h-NAAA Fluorogenic assay

Row | IC50 [2, 3] | Compound | other results
1 |  | CCCCc1ccc(OC2CC3CCC(C2)N3S(=O)(=O)c2c(C)n[nH]c2C)cc1 [Example 03, (1R,3s,5S)-3-(4-Butylphenoxy)-8-[(3,5-dimethyl-1H-pyrazol-4-yl)sulfonyl]-8-azabicyclo[3.2.1]octane] | Inhibition of ROS production in neuro 2A cells, 5 μM (inhibition) ([1]; ROS induced with 0.2 mM H2O2): 39%; Inhibition of ROS production in neuro 2A cells, 10 μM (inhibition) ([1]; ROS induced with 0.2 mM H2O2): 136%; IC50 ([2]; Activity h-NAAA Fluorogenic assay): > 2000 nM
2 | > 2000 nM | Cc1n[nH]c(C)c1S(=O)(=O)N1C2CCC1CC(Oc1cccnn1)C2 [Example 37, (1R,3r,5S)-8-[(3,5-Dimethyl-1H-pyrazol-4-yl)sulfonyl]-3-pyridazin-3-yloxy-8-azabicyclo[3.2.1]octane] | 
3 | < 1000 nM | CCOCc1cnc(OC2CC3CCC(C2)N3S(=O)(=O)c2c(C)n[nH]c2C)cn1 [Example 41, (1R,3r,5S)-8-[(3,5-Dimethyl-1H-pyrazol-4-yl)sulfonyl]-3-[5-(ethoxymethyl)pyrazin-2-yl]oxy-8-azabicyclo[3.2.1]octane] | 
4 | < 1000 nM | Cc1n[nH]c(C)c1S(=O)(=O)N1C2CCC1CC(Oc1ccc(F)cc1)C2 [Example 42, (1R,3r,5S)-3-(4-Fluoro-phenoxy)-8-[(3,5-dimethyl-1H-pyrazol-4-yl)sulfonyl]-8-azabicyclo[3.2.1]octane] | 
5 | < 1000 nM | Cc1n[nH]c(C)c1S(=O)(=O)N1C2CCCC1CC(Oc1cnccn1)C2 [Example 44, (1R,3r,5S)-9-[(3,5-Dimethyl-1H-pyrazol-4-yl)sulfonyl]-3-(pyrazin-2-yloxy)-9-azabicyclo[3.3.1]nonane] | 
6 | > 2000 nM | Cc1n[nH]c(C)c1S(=O)(=O)N1C2CCCC1CC(Oc1cnccn1)C2 [Example 45, (1R,3s,5S)-9-[(3,5-Dimethyl-1H-pyrazol-4-yl)sulfonyl]-3-(pyrazin-2-yloxy)-9-azabicyclo[3.3.1]nonane] | 
7 | > 2000 nM | Cc1n[nH]c(C)c1S(=O)(=O)N1C2COCC1CC(Oc1cnccn1)C2 [Example 46, (1R,3s,5S)-9-[(3,5-Dimethyl-1H-pyrazol-4-yl)sulfonyl]-7-pyrazin-2-yloxy-3-oxa-9-azabicyclo[3.3.1]nonane] | 
8 | > 2000 nM | Cc1n[nH]c(C)c1S(=O)(=O)N1C2COCC1CC(Oc1cnccn1)C2 [Example 47, (1R,3r,5S)-9-[(3,5-Dimethyl-1H-pyrazol-4-yl)sulfonyl]-7-pyrazin-2-yloxy-3-oxa-9-azabicyclo[3.3.1]nonane] | 
9 | > 2000 nM | Cc1n[nH]c(C)c1S(=O)(=O)N1C[C@H]2COC[C@@H](C1)[C@H]2Oc1cnccn1 [Example 48, (1R,5S,9r)-7-((3,5-Dimethyl-1H-pyrazol-4-yl)sulfonyl)-9-(pyrazin-2-yloxy)-3-oxa-7-azabicyclo[3.3.1]nonane] | 
10 | > 2000 nM | Cc1n[nH]c(C)c1S(=O)(=O)N1C[C@H]2COC[C@@H](C1)C2Oc1cnccn1 (stereo partly drawn) [Example 49, (1R,5S,9s)-7-((3,5-Dimethyl-1H-pyrazol-4-yl)sulfonyl)-9-(pyrazin-2-yloxy)-3-oxa-7-azabicyclo[3.3.1]nonane] | 
11 | > 2000 nM | Cc1n[nH]c(C)c1S(=O)(=O)N1C[C@H]2CC[C@@H](C1)C2Oc1cnccn1 (stereo partly drawn) [Example 50, (1R,5S,8r)-3-((3,5-Dimethyl-1H-pyrazol-4-yl)sulfonyl)-8-(pyrazin-2-yloxy)-3-azabicyclo[3.2.1]octane] | 
12 | > 2000 nM | Cc1n[nH]c(C)c1S(=O)(=O)N1C[C@H]2CCC[C@@H](C1)[C@H]2Oc1cnccn1 [Example 51, (1R,5S,9r)-3-((3,5-Dimethyl-1H-pyrazol-4-yl)sulfonyl)-9-(pyrazin-2-yloxy)-3-azabicyclo[3.3.1]nonane] | Inhibition of ROS production in neuro 2A cells, 5 μM (inhibition) ([1]; ROS induced with 0.2 mM H2O2): 0%; Inhibition of ROS production in neuro 2A cells, 10 μM (inhibition) ([1]; ROS induced with 0.2 mM H2O2): 21%
13 | < 1000 nM | Cc1n[nH]c(C)c1S(=O)(=O)N1C[C@H]2CCC[C@@H](C1)[C@@H]2Oc1cnccn1 [Example 52, (1R,5S,9s)-3-((3,5-Dimethyl-1H-pyrazol-4-yl)sulfonyl)-9-(pyrazin-2-yloxy)-3-azabicyclo[3.3.1]nonane] | Inhibition of ROS production in neuro 2A cells, 5 μM (inhibition) ([1]; ROS induced with 0.2 mM H2O2): 9%; Inhibition of ROS production in neuro 2A cells, 10 μM (inhibition) ([1]; ROS induced with 0.2 mM H2O2): 27%
14 | > 2000 nM | Cc1ccc(OC2CC3CCC(C2)N3S(=O)(=O)c2c(C)n[nH]c2C)nn1 [Example 53, (1R,3r,5S)-8-[(3,5-Dimethyl-1H-pyrazol-4-yl)sulfonyl]-3-(6-methylpyridazin-3-yl)oxy-8-azabicyclo[3.2.1]octane] | 
15 |  | O=C(/C=C/c1ccc(O)c2c1[C@H](C(=O)O[C@H](Cc1ccc(O)c(O)c1)C(=O)O)[C@@H](c1ccc(O)c(O)c1)O2)O[C@H](Cc1ccc(O)c(O)c1)C(=O)O [Salvianolic Acid B, Salvianolic acid B, reference compound] | Inhibition of ROS production in neuro 2A cells (inhibition), reference at 100 μM ([1]; reference compound 100 μM, ROS induced with 0.2 mM H2O2): 100%

Row | Compound | IC50 [2, 3] | other results
16 | Cc1n[nH]c(C)c1S(=O)(=O)N1C2CCC1CC(Oc1ccc(C#N)cc1)C2 [Example 08, (1R,3r,5S)-3-(4-Cyanophenoxy)-8-[(3,5-dimethyl-1H-pyrazol-4-yl)sulfonyl]-8-azabicyclo[3.2.1]octane] | < 1000 nM | Inhibition of ROS production in neuro 2A cells, 5 μM (inhibition) ([1]; ROS induced with 0.2 mM H2O2): 0%; Inhibition of ROS production in neuro 2A cells, 10 μM (inhibition) ([1]; ROS induced with 0.2 mM H2O2): 77%
17 | Cc1n[nH]c(C)c1S(=O)(=O)N1C2CCC1CC(Oc1ccc(C#N)cc1)C2 [Example 09, (1R,3s,5S)-3-(4-Cyanophenoxy)-8-[(3,5-dimethyl-1H-pyrazol-4-yl)sulfonyl]-8-azabicyclo[3.2.1]octane] | > 2000 nM | Inhibition of ROS production in neuro 2A cells, 5 μM (inhibition) ([1]; ROS induced with 0.2 mM H2O2): 35%; Inhibition of ROS production in neuro 2A cells, 10 μM (inhibition) ([1]; ROS induced with 0.2 mM H2O2): 56%
18 | CCCCc1ccc(OC2CC3CCC(C2)N3S(=O)(=O)c2c(C)noc2C)cc1 [Example 15, 4-[[(1R,3r,5S)-3-(4-Butylphenoxy)-8-azabicyclo[3.2.1]octan-8-yl]sulfonyl]-3,5-dimethyl-isoxazole] | > 2000 nM | inhibition at 5 µM [1]: 0%; inhibition at 10 µM [1]: 84%
19 | Cc1ccc2oc(OC3CC4CCC(C3)N4S(=O)(=O)c3c(C)n[nH]c3C)nc2c1 [Example 38, (1R,3r,5S)-8-[(3,5-Dimethyl-1H-pyrazol-4-yl)sulfonyl]-3-(2-(5-methyl)-benzoxazoloxy)-8-azabicyclo[3.2.1]octane] | < 1000 nM | 
20 | Cc1n[nH]c(C)c1S(=O)(=O)N1C2CCC1CC(Oc1ccc(Cl)cc1)C2 [Example 39, (1R,3r,5S)-3-(4-Chloro-phenoxy)-8-[(3,5-dimethyl-1H-pyrazol-4-yl)sulfonyl]-8-azabicyclo[3.2.1]octane] | < 1000 nM | 
21 | CCCCc1cnc(OC2CC3CCC(C2)N3S(=O)(=O)c2c(C)n[nH]c2C)cn1 [Example 40, (1R,3r,5S)-8-[(3,5-Dimethyl-1H-pyrazol-4-yl)sulfonyl]-3-[5-butylpyrazin-2-yl]oxy-8-azabicyclo[3.2.1]octane] | < 1000 nM | inhibition at 5 µM [1]: 19%; inhibition at 10 µM [1]: 86%
22 | Cc1n[nH]c(C)c1S(=O)(=O)N1[C@@H]2CC[C@H]1C[C@H](Oc1cccnn1)C2 [Example 43, (1R,3s,5S)-8-[(3,5-Dimethyl-1H-pyrazol-4-yl)sulfonyl]-3-pyridazin-3-yloxy-8-azabicyclo[3.2.1]octane] | > 2000 nM | 
23 | (1R,3r,5S)-3-(4-Hexylphenoxy)-8-[(3,5-dimethyl-1H-pyrazol-4-yl)sulfonyl]-8-azabicyclo[3.2.1]octane [Example 19] | < 1000 nM | 
